Patent US10759790B2, “Heterocyclic constrained tricyclic sulfonamides as anti-cancer agents” (ICAHN SCHOOL OF MEDICINE AT MOUNT SINAI, priority 2015, dated 2020)

tested on: H1650 lung cancer cells; assay: Cell viability assay (MTT, IC50 determination); format: cell-based; conditions: Homo sapiens, NCI-H1650; H1650 lung cancer cells, MTT, 48 hours after drug treatment; read-out: H1650 cell viability IC50
Method: Cell viability assays were performed according to Denizot, F. and R. Lang, Journal of Immunological Methods, 1986. 89(22): p. 271-277. H1650 lung cancer cells were plated at 150,000 cells per well in a 12 well plate. Twenty-four hours after plating, cells were treated as described with increasing concentrations of drug and control. Forty-eight hours after drug treatment, cells were treated with 100 μL of 3-(4,5-Dimethylthiazol-2-yl)-2,5-diphenyltetrazolium bromide (MTT) and incubated for 2 hours at 37 C. The MTT solution was subsequently replaced with 300 μL of n-propyl alcohol and re-aliquoted to a 96 well plate. Spectrophotometric analysis of each solution was performed using a 96 well plate reader at 600 nm in triplicate.

Row | Structure (SMILES) | IC50 [µM]
1 | O=S(=O)(N[C@@H]1COC[C@H](n2c3ccccc3c3ccccc32)[C@H]1O)c1ccc(OC(F)(F)F)cc1 [Example 50, N-((3R,4R,5S)-5-(9H-carbazol-9-yl)-4-hydroxytetrahydro-2H-pyran-3-yl)-4-(trifluoromethoxy)benzenesulfonamide] | 10
2 | Cc1ccc2c(c1)c1cc(C)ccc1n2[C@H]1COC[C@@H](NS(=O)(=O)c2ccc(OC(F)(F)F)cc2)[C@@H]1O [Example 51, N-((3R,4R,5S)-5-(3,6-dimethyl-9H-carbazol-9-yl)-4-hydroxytetrahydro-2H-pyran-3-yl)-4-(trifluoromethoxy)benzenesulfonamide] | 5
3 | CC(C)(C)OC(=O)N1C[C@@H](NS(=O)(=O)c2ccc(OC(F)(F)F)cc2)[C@H](O)[C@@H](n2c3ccccc3c3ccccc32)C1 [Example 52a, (3S,4R,5R)-tert-butyl 3-(9H-carbazol-9-yl)-4-hydroxy-5-(4-(trifluoromethoxy)phenylsulfonamido)piperidine-1-carboxylate] | 5
4 | CC(C)(C)OC(=O)N1C[C@H](NS(=O)(=O)c2ccc(OC(F)(F)F)cc2)[C@@H](O)[C@H](n2c3ccccc3c3ccccc32)C1 [Example 52b, (3R,4S,5S)-tert-butyl 3-(9H-carbazol-9-yl)-4-hydroxy-5-(4-(trifluoromethoxy)phenylsulfonamido)piperidine-1-carboxylate] | 5
5 | CC(C)(C)c1ccc2c(c1)c1ccccc1n2[C@H]1CNC[C@@H](NS(=O)(=O)c2ccc(OC(F)(F)F)cc2)[C@@H]1O [Example 53a, N-((3R,4R,5S)-5-(3-(tert-butyl)-9H-carbazol-9-yl)-4-hydroxypiperidin-3-yl)-4-(trifluoromethoxy)benzenesulfonamide] | 5
6 | CC(C)(C)OC(=O)N1C[C@@H](NS(=O)(=O)c2ccc(OC(F)(F)F)cc2)[C@H](O)[C@@H](n2c3ccc(F)cc3c3cc(F)ccc32)C1 [Example 54, (3S,4R,5R)-tert-butyl 3-(3,6-difluoro-9H-carbazol-9-yl)-4-hydroxy-5-(4-(trifluoromethoxy)phenylsulfonamido)piperidine-1-carboxylate] | 5
7 | O=S(=O)(N[C@@H]1CNC[C@H](n2c3ccc(F)cc3c3cc(F)ccc32)[C@H]1O)c1ccc(OC(F)(F)F)cc1 [Example 55, N-((3R,4R,5S)-5-(3,6-difluoro-9H-carbazol-9-yl)-4-hydroxypiperidin-3-yl)-4-(trifluoromethoxy)benzenesulfonamide] | 5
8 | CC(C)(C)OC(=O)N1C[C@@H](NS(=O)(=O)c2ccc(OC(F)(F)F)cc2)[C@H](O)[C@@H](n2c3ccc(Cl)cc3c3cc(Cl)ccc32)C1 [Example 56, (3S,4R,5R)-tert-butyl 3-(3,6-dichloro-9H-carbazol-9-yl)-4-hydroxy-5-(4-(trifluoromethoxy)phenylsulfonamido)piperidine-1-carboxylate] | 5
9 | CC(C)(C)OC(=O)N1C[C@@H](NS(=O)(=O)c2ccc(OC(F)(F)F)cc2)[C@H](O)[C@@H](N2c3ccc(C(F)(F)F)cc3Oc3cc(C(F)(F)F)ccc32)C1 [Example 57, (3S,4R,5R)-tert-butyl 3-(3,7-bis(trifluoromethyl)-10H-phenoxazin-10-yl)-4-hydroxy-5-(4-(trifluoromethoxy)phenylsulfonamido)piperidine-1-carboxylate] | 5
10 | O=S(=O)(N[C@@H]1CNC[C@H](N2c3ccc(C(F)(F)F)cc3Oc3cc(C(F)(F)F)ccc32)[C@H]1O)c1ccc(OC(F)(F)F)cc1 [Example 58, N-((3R,4R,5S)-5-(3,7-bis(trifluoromethyl)-10H-phenoxazin-10-yl)-4-hydroxypiperidin-3-yl)-4-(trifluoromethoxy)benzenesulfonamide] | 5
11 | O=S(=O)(N[C@@H]1COC[C@H](N2c3ccccc3Oc3ccccc32)[C@H]1O)c1ccc(Cl)cc1 [Example 61, 4-chloro-N-((3R,4R,5S)-4-hydroxy-5-(10H-phenoxazin-10-yl)tetrahydro-2H-pyran-3-yl)benzenesulfonamide] | 5
12 | O=S(=O)(N[C@@H]1COC[C@H](N2c3ccccc3Oc3ccccc32)[C@H]1O)c1ccc(Cl)s1 [Example 62, 5-chloro-N-((3R,4R,5S)-4-hydroxy-5-(10H-phenoxazin-10-yl)tetrahydro-2H-pyran-3-yl)thiophene-2-sulfonamide] | 15
13 | O=S(=O)(N[C@@H]1COC[C@H](N2c3ccccc3Oc3ccccc32)[C@H]1O)c1ccc(C(F)(F)F)nc1 [Example 63, N-((3R,4R,5S)-4-hydroxy-5-(10H-phenoxazin-10-yl)tetrahydro-2H-pyran-3-yl)-6-(trifluoromethyl)pyridine-3-sulfonamide] | 20
14 | O=S(=O)(N[C@@H]1COC[C@H](N2c3ccccc3Oc3ccccc32)[C@H]1O)c1cccc(Cl)c1 [Example 64, 3-chloro-N-((3R,4R,5S)-4-hydroxy-5-(10H-phenoxazin-10-yl)tetrahydro-2H-pyran-3-yl)benzenesulfonamide] | 15
15 | O=S(=O)(N[C@@H]1COC[C@H](N2c3ccccc3Oc3ccccc32)[C@H]1O)c1ccccc1Cl [Example 65, 2-chloro-N-((3R,4R,5S)-4-hydroxy-5-(10H-phenoxazin-10-yl)tetrahydro-2H-pyran-3-yl)benzenesulfonamide] | 20
16 | CC(C)(C)OC(=O)Nc1ccc(S(=O)(=O)N[C@@H]2COC[C@H](N3c4ccccc4Oc4ccccc43)[C@H]2O)cc1 [Example 66, tert-butyl (4-(N-((3R,4R,5S)-4-hydroxy-5-(10H-phenoxazin-10-yl)tetrahydro-2H-pyran-3-yl)sulfamoyl)phenyl)carbamate] | 5
17 | CC(C)(C)OC(=O)Nc1cccc(S(=O)(=O)N[C@@H]2COC[C@H](N3c4ccccc4Oc4ccccc43)[C@H]2O)c1 [Example 68, tert-butyl (3-(N-((3R,4R,5S)-4-hydroxy-5-(10H-phenoxazin-10-yl)tetrahydro-2H-pyran-3-yl)sulfamoyl)phenyl)carbamate] | 5

same assay, conditions: at 40 uM; H1650 lung cancer cells, MTT, 48 hours

Row | Structure (SMILES) | H1650 cell viability, % at 40 uM [% at 40 uM]
18 | O=S(=O)(N[C@@H]1COC[C@H](N2c3ccccc3Oc3ccccc32)[C@H]1O)c1ccccc1 [Example 60, N-((3R,4R,5S)-4-hydroxy-5-(10H-phenoxazin-10-yl)tetrahydro-2H-pyran-3-yl)benzenesulfonamide] | 37
19 | Nc1ccc(S(=O)(=O)N[C@@H]2COC[C@H](N3c4ccccc4Oc4ccccc43)[C@H]2O)cc1 [Example 67, 4-amino-N-((3R,4R,5S)-4-hydroxy-5-(10H-phenoxazin-10-yl)tetrahydro-2H-pyran-3-yl)benzenesulfonamide] | 56
20 | Nc1cccc(S(=O)(=O)N[C@@H]2COC[C@H](N3c4ccccc4Oc4ccccc43)[C@H]2O)c1 [Example 69, 3-amino-N-((3R,4R,5S)-4-hydroxy-5-(10H-phenoxazin-10-yl)tetrahydro-2H-pyran-3-yl)benzenesulfonamide] | 54
